Patent US9388147B2 (Receptos, Inc., priority 2009, dated 2016)

The molecules below were run against S1P1/EDG1 (Homo sapiens, UniProt P21453) (assay: S1P1 CRE-bla CHOK1 reporter assay, inhibition of Forskolin induced cAMP). Settings: agonist activity range, S1P1 CRE-bla CHOK1, 2 μM Forskolin; read-out: S1P1 ACTIVITY.
Type: cell-based
How it was run: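 Read-out is a FRET β-lactamase substrate (2 h, room temperature) after 4 h, 37 °C compound treatment under 2 μM Forskolin in stable S1P1-transfected CRE-bla CHO-K1 cells. Ten-point curves; non-linear regression gives EC50 for inhibition of Forskolin-stimulated cAMP.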

Chain of S1P1/EDG1 (P21453 whole entry): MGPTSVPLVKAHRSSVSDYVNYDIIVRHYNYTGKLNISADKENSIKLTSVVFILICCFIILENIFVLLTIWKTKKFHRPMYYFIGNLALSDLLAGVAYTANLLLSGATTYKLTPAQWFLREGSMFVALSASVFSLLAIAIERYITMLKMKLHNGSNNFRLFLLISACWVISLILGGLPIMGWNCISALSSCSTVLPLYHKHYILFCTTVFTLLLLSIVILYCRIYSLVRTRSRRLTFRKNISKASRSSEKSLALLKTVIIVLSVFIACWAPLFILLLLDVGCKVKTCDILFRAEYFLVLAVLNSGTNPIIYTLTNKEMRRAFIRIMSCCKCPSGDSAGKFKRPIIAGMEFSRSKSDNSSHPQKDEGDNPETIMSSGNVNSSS

| Compound | EC50 [nM] |
| --- | --- |
| CC(C)Oc1ccc(-c2nc(-c3cccc4c3CC[C@@H]4NC(=O)N3CCC(CC(=O)O)CC3)no2)cc1C#N [Compound 229] | 0.05 to 0.5 |
| CC(C)Oc1ccc(-c2nc(-c3cccc4c3CC[C@@H]4NS(=O)(=O)CCN3CC[C@H](O)C3)no2)cc1C#N [Compound 174] | 0.5 to 5 |
| CC(C)Oc1ccc(-c2nc(-c3cccc4c3CC[C@H]4NC(=O)N3CCC(N(C)C)CC3)no2)cc1C#N [Compound 246] | > 5 |
| CC(C)Oc1ccc(-c2nc(-c3cccc4c3CC[C@@H]4NCCF)no2)cc1C#N [Compound 142] | 0.05 to 0.5 |
| N#Cc1cc(-c2nc(-c3cccc4c3CCC4NCCO)no2)ccc1O (racemic) [Compound 102, 2-hydroxy-5-(3-(1-((2-hydroxyethyl)amino)-2,3-dihydro-1H-inden-4-yl)-1,2,4-oxadiazol-5-yl)benzonitrile] | > 5 |
| CC(C)Oc1ccc(-c2nc(-c3cccc4c3CC[C@H]4NCCF)no2)cc1C#N [Compound 124, (R)-5-(3-(1-((2-fluoroethyl)amino)-2,3-dihydro-1H-inden-4-yl)-1,2,4-oxadiazol-5-yl)-2-isopropoxybenzonitrile] | 0.05 to 0.5 |
| CC(C)Oc1ccc(-c2nc(-c3cccc4c3CC[C@H]4NS(=O)(=O)Cc3ccccc3)no2)cc1C#N [Compound 81] | 0.5 to 5 |
| CC(C)Oc1ccc(-c2nc(-c3cccc4c3CC[C@H]4NCC(=O)NCCO)no2)cc1C#N [Compound 135] | 0.05 to 0.5 |
| CC(C)Oc1ccc(-c2nc(-c3cccc4c3CC[C@H]4NS(=O)(=O)CCN3CCOCC3)no2)cc1C#N [Compound 176] | 0.5 to 5 |
| CC(C)Oc1ccc(-c2nc(-c3cccc4c3CC[C@@H]4N(C)C(=O)CO)no2)cc1C#N [Compound 110] | 0.05 to 0.5 |
| CC(C)Oc1ccc(-c2nc(-c3cccc4c3CC[C@H]4NC(=O)N3CCNCC3)no2)cc1C#N [Compound 213] | 0.5 to 5 |
| CC(C)Oc1ccc(-c2nc(-c3cccc4c3CC[C@H]4NC(C)C(=O)N(C)C)no2)cc1C#N (mixture of isomers) [Compound 58] | 0.5 to 5 |
| CC(C)Oc1ccc(-c2nc(-c3cccc4c3CC[C@H]4NCC(=O)N3CCC3)no2)cc1C#N [Compound 128] | 0.05 to 0.5 |
| CC(C)Oc1ccc(-c2nc(-c3cccc4c3CCC4NC3CCOCC3)no2)cc1C#N (racemic) [Compound 23] | 0.5 to 5 |
| CC(C)Oc1ccc(-c2nc(-c3cccc4c3CC[C@@H]4NS(=O)(=O)CC(=O)N3CCOCC3)no2)cc1C#N [Compound 191] | 0.05 to 0.5 |
| CC(C)Oc1ccc(-c2nc(-c3cccc4c3CC[C@H]4NS(=O)(=O)CC(=O)O)no2)cc1C#N [Compound 184, (R)-2 (N (4-(5-(3 cyano-4-isopropoxyphenyl)-1,2,4-oxadiazol-3-yl)-2,3-dihydro-1H-inden-1-yl)sulfamoyl)acetic acid] | < 0.05 |
| CC(C)Oc1ccc(-c2nc(-c3cccc4c3CC[C@H]4NCCS(C)(=O)=O)no2)cc1C#N [Compound 125, (R)-2-isopropoxy-5-(3-(1-((2-(methylsulfonyl)ethyl)amino)-2,3-dihydro-1H-inden-4-yl)-1,2,4-oxadiazol-5-yl)benzonitrile] | 0.05 to 0.5 |
| CC(C)Oc1ccc(-c2nc(-c3cccc4c3CC[C@@H]4NC(=O)N3CCC(N(C)C)CC3)no2)cc1C#N [Compound 247] | 0.5 to 5 |
| CC(C)Oc1ccc(-c2nc(-c3cccc4c3CC[C@@H]4NC(=O)N3CC[C@H](N)C3)no2)cc1C#N [Compound 224] | 0.5 to 5 |
| CC(C)Oc1ccc(-c2nc(-c3cccc4c3CC[C@@H]4NS(=O)(=O)CCC3CCC3)no2)cc1C#N [Compound 168] | 0.05 to 0.5 |
| CC(C)Oc1ccc(-c2nc(-c3cccc4c3CC[C@@H]4NC(=O)N3CCC(O)CC3)no2)cc1C#N [Compound 241] | 0.05 to 0.5 |
| CC(C)Oc1ccc(-c2nc(-c3cccc4c3CC[C@@H]4NC(=O)N3CCNCC3)no2)cc1C#N [Compound 214] | 0.05 to 0.5 |
| CC(C)Oc1ccc(-c2nc(-c3cccc4c3CC[C@@H]4NC(=O)OCCO)no2)cc1C#N [Compound 153] | 0.05 to 0.5 |
| CC(C)Oc1ccc(-c2nc(-c3cccc4c3CC[C@H]4N[C@@H](C)C(=O)O)no2)cc1C#N [Compound 64] | < 0.05 |
